Reference: CN109475563A, “蛋白酶抑制剂的长效医药组合物” (Taimed Biologics Inc, priority 2016, dated 2017)

Columns and labels:
[1] = Monkey PK, nanosuspensions of different particle size; assay type: in vivo
[2] = molecular target: HIV-1 protease (HIV-1蛋白酶) (Human immunodeficiency virus type 1 group M subtype B, UniProt P04585); details: cited from earlier work
[3] = PK of injectable nanosized TMB-607 (summary statement); assay type: in vivo; details: injectable formulation of nanosized TMB-607; species not stated
[4] = Rat subcutaneous PK, microparticle vs nanosuspension of TMB-607; assay type: in vivo; details: SC
[5] = tested on: single mutations in the protease open reading frame (蛋白酶开放读框); details: in vitro, site-directed mutagenesis; cited from earlier work
[6] = Dog PK, intramuscular vs subcutaneous nanosuspension of TMB-607; assay type: in vivo, beagle dog; details: Fig. 3
[7] = tested on: laboratory-adapted virus (实验室适应病毒); details: 48-week in vitro selection, increasing TMB-607 concentration; cited from earlier work
[8] = male beagle dog, 60 mg/kg, particle size about 150 nm, 6 weeks

## COC(=O)N[C@H](C(=O)NCCCC[C@@H](CO)N(CC(C)C)S(=O)(=O)c1ccc(N)cc1)C(c1ccccc1)c1ccccc1 [TMB-607]
[1]; 113 nm compared with 214 nm
  plasma level and duration of action, smaller particle size (in words): 较高的血浆水平和较长的作用时间
[1]; monkey, 60 mg/kg, 113 nm versus 214 nm, Fig. 4
  plasma level and duration of action, smaller particles (in words): 较高的血浆水平和较长的作用时间
[1]; monkey, injected nanosuspension, 60 mg/kg, 214 nm versus 113 nm, 4 weeks
  AUC0-t on reducing particle size (in words): AUC0-t和t1/2均大致增加
[1]; particle sizes 214 nm and 113 nm
  plasma level (in words): 都可以延长血浆水平
[2]
  inhibition of HIV-1 protease (potency, in words): 效用 and 有效
  selectivity in inhibiting HIV-1 protease (in words): 选择性 and 有选择性
[3]
  duration of stable plasma levels: > 1 month
[4]; nano-sized TMB-607, printed as 247 nm, Fig. 2
  duration of plasma level above protein-binding-adjusted EC50: 14 days
[4]; nanosuspension printed as 247 nm, compared with microparticle 2470 nm, Fig. 2
  duration for which TMB-607 plasma level is maintained: > 14 days
[4]; microparticle 2470 nm, Fig. 2 (general description)
  plasma level above protein-binding-adjusted EC50 for 14 days (in words): 不能
[4]; rat, microparticle 2470 nm, 16.7 mg/kg
  Cmax in the initial period (in words): 引人注目的高Cmax
[4]; rat, microparticle 2470 nm, 16.7 mg/kg, Fig. 2
  plasma level above protein-binding-adjusted EC50 for 14 days (in words): 不能
[4]; rat, nanosuspension 240 nm, 23.5 mg/kg
  release profile (in words): 持续的释放曲线
[4]; rat, nanosuspension 240 nm, doses printed for microparticle and nanosuspension 16.7 and 23.5 mg/kg respectively, Fig. 2
  duration of plasma level above protein-binding-adjusted EC50: 14 days
[5]
  resistance caused by single mutation (in words): 单一突变不会导致对TMB-607的明显抗药性
[6]; [8]
  AUC0-t, SC versus IM (in words): 没有在AUC0-t值中观察到明显的差异
  Cmax, IM versus SC (in words): 肌肉给药路径的Cmax值高于皮下给药路径的Cmax值
[6]; single IM or SC injection of nanosuspension
  plasma level after single IM or SC injection (in words): 延长了TMB-607的血浆水平
[7]
  mutations selected in protease open reading frame: 四个突变
